# Laboratory results published in patent US7456201B2, “Pharmaceutically active compounds and methods of use” (Laboratoires Serono SA, priority 2000, dated 2008).
# System: untransfected CHO parental cells
# Assay: CHO parental cells assay (intracellular cAMP, RIA)
# Assay type: cell-based, Chinese Hamster
# Conditions: tested on untransfected CHO parental cells
# Protocol: Briefly CHO parental cells were plated in 96 well packard view plates 5×10^4 cells/well in serum containing media. […] The wells were washed with serum free assay medium (containing 0.1 mM MIX) and pre-incubated for 15 minutes in this medium. Compound 1 and forskolin (positive control) were added and the cells were incubated for an additional one hour. The cells were lysed and intracellular cAMP was measured using the Amersham direct one step cAMP-RIA kit according to the manufacturers directions.
compound,measurement,value
"CC(C)(C)c1ccc(-n2nc(-c3cccnc3)cc2CCCCC(=O)NC(Cc2ccc(O)cc2)C(N)=O)cc1 (stereo not shown) [Compound 1-B, N-(5-[1-(4-tert-butylphenyl)-3-pyridin-3-yl-1H-pyrazol-5-yl]pentanoyl)tyrosinamide]",hFSHR specificity,hFSHR specific
